# Target: human α5β3γ2 receptors (α5-GABAA receptor) (Homo sapiens (Human), UniProt P18507+P31644)
# Experiment: 3H-flunitrazepam competition binding, human α5β3γ2 GABAA receptor
# Conditions: HEK293 cell membranes, 1 nM 3H-flunitrazepam; read-out: α5-GABAAR Ki
# Protocol: The affinity of the compound to each subtype of GABAA receptor was determined by competing for the binding of ^3H-flunitrazepam to HEK293 cells stably expressing human α1β3γ2, α2β3γ2, α3β3γ2, and α5β3γ2 receptors.
# The cells were suspended in 50 mM Tris-HCl buffer (pH=7.4), homogenized 10 times on ice with a homogenizer for 20 seconds, and centrifuged at 1000 g for 10 minutes at 4° C. The supernatant was collected, and the above steps were repeated. The supernatant was centrifuged at 4° C. (33800 g; Thermo, rotor: A27-8×50) for 60 minutes, and the precipitate was resuspended in Tris buffer (50 mM Tris-HCl, 10 mM MgCl2, 0.5 mM EDTA, 10% glycerol). Protein was measured (BCA method, Pierce), and 1 mL aliquots were prepared and stored at −80° C.
# The radioligand competition binding assay was performed in a 200 μL system (96-well plate) containing 100 μL of cell membrane. The concentration of ^3H-flunitrazepam was 1 nM and the concentration of the test compound was in the range of […]. Flumazenil was used as a control. 1 μL of 2 mM flumazenil (final concentration […]) was added to the low signal control well (Low control, LC), and 1 μL of DMSO was added to the high signal control well (High control, HC). The final concentration of target membrane protein was […]. All test compound sample storage solutions were 10 mM. The working concentration of the samples was to dilute all the samples to 0.2 mM with DMSO, followed by 4-fold serial gradient dilutions for a total of 8 concentration gradients. The 96-well plate was sealed with a sealing film, and then incubated on a shaker at room temperature for 1 hour. At the same time, the GF/C filter plate was soaked in soaking buffer (0.3% PEI, stored at 4° C.) for at least 0.5 hours. After the binding incubation was completed, the cells were collected onto a GF/C filter plate using a cell harvester. The plate was washed four times with washing buffer (50 mM Tris-HCl, pH 7.4, stored at 4° C.). After drying in a 50° C. oven for 1 hour, the bottom of the dried GF/C filter plate was sealed. The residual radioactivity on the filter membrane was detected using liquid scintillation counting. 50 μL of scintillation fluid was added to each well, and the plate was sealed. The readings were taken using a Microbeta2. The inhibitory activity of the test sample on the binding of ^3H-flunitrazepam to GABAA receptor membrane proteins was calculated, and the IC50 of each test sample was calculated by dose-effect curve fitting (GraphPad Prism 5 software), and the Ki of the sample was calculated from the IC50, thus evaluating the binding ability of the sample to the various subtypes of GABAA receptors.
row,Compound,Ki
1,"Cc1nnn(-c2ccc(C(F)F)cc2)c1COc1ccc(N2CC(C(=O)Nc3cccnc3F)C2)nn1 [Example 151, 1-(6-((1-(4-(Difluoromethyl)phenyl)-4-methyl-1H-1,2,3-triazol-5-yl)methoxy)pyridazin-3-yl)-N-(2-fluoropyridin-3-yl)azetidine-3-carboxamide]",1.36 nM
2,"O=C1CN(c2ccc(OCc3cnnn3-c3ccc(Cl)cc3)nn2)CCN1 [Example 214, 4-(6-((1-(4-Chlorophenyl)-1H-1,2,3-triazol-5-yl)methoxy)pyridazin-3-yl)piperazin-2-one]",49.2 nM
3,"CCNC(=O)C1=CCCN(c2ccc(OCc3c(C)nnn3-c3ccc(C(F)F)cc3)nn2)C1 [Example 172, 1-(6-((1-(4-(Difluoromethyl)phenyl)-4-methyl-1H-1,2,3-triazol-5-yl)methoxy)pyridazin-3-yl)-N-ethyl-1,2,5,6-tetrahydropyridine-3-carboxamide]",0.67 nM
4,"Cc1nnn(-c2ccc(C(F)F)cc2)c1COc1nnc(N2CCNC(=O)C2)c2ncccc12 [Example 137, 4-(5-((1-(4-(Difluoromethyl)phenyl)-4-methyl-1H-1,2,3-triazol-5-yl)methoxy)pyrido[2,3-d]pyridazin-8-yl)piperazin-2-one]",0.49 nM
5,"Cc1cc(N2CCNC(=O)C2)nnc1OCc1c(C)nnn1-c1ccc(C(F)F)cc1 [Example 81, 4-(6-((1-(4-(Difluoromethyl)phenyl)-4-methyl-1H-1,2,3-triazol-5-yl)methoxy)-5-methylpyridazin-3-yl)piperazin-2-one]",0.56 nM
6,"Cc1nnn(-c2ccc(Cl)cn2)c1COc1ccc(N2CCNC(=O)C2)nn1 [Example 72, 4-(6-((1-(5-Chloropyridin-2-yl)-4-methyl-1H-1,2,3-triazol-5-yl)methoxy)pyridazin-3-yl)piperazin-2-one]",0.46 nM
7,"Cc1nnn(-c2ccc(C(F)F)cc2)c1COc1ccc(N2CCN(CCn3cccn3)C(=O)C2)nn1 [Example 138, 1-(2-(1H-Pyrazol-1-yl)ethyl)-4-(6-((1-(4-(difluoromethyl)phenyl)-4-methyl-1H-1,2,3-triazol-5-yl)methoxy)pyridazin-3-yl)piperazin-2-one]",2.11 nM
8,"CCNC(=O)[C@@H]1CCCN1c1ccc(OCc2c(C)nnn2-c2ccc(C(F)F)cc2)nn1 [Example 42, (S)-1-(6-((1-(4-(Difluoromethyl)phenyl)-4-methyl-1H-1,2,3-triazol-5-yl)methoxy)pyridazin-3-yl)-N-ethylpyrrolidine-2-carboxamide]",115 nM
9,"Cc1nnn(-c2ccc(C(F)F)cc2)c1COc1ccc(N2CC(C(=O)Nc3ccccc3)C2)nn1 [Example 47, 1-(6-((1-(4-(Difluoromethyl)phenyl)-4-methyl-1H-1,2,3-triazol-5-yl)methoxy)pyridazin-3-yl)-N-phenylazetidine-3-carboxamide]",1.1 nM
10,"Cc1nnn(-c2ccc(CO)cc2)c1COc1ccc(N2CCNC(=O)C2)nn1 [Example 79, 4-(6-((1-(4-(hydroxymethyl)phenyl)-4-methyl-1H-1,2,3-triazol-5-yl)methoxy)pyridazin-3-yl)piperazin-2-one]",32.5 nM
11,"COc1cccnc1NC(=O)C1CN(c2ccc(OCc3c(C)nnn3-c3ccc(C(F)F)cc3)nn2)C1 [Example 152, 1-(6-((1-(4-(Difluoromethyl)phenyl)-4-methyl-1H-1,2,3-triazol-5-yl)methoxy)pyridazin-3-yl)-N-(3-methoxypyridin-2-yl)azetidine-3-carboxamide]",1.65 nM

# The next lines start with the values.
row,Ki,Compound
1,3.31 nM,"Cc1nnn(-c2ccc(C(F)F)cc2)c1COc1ccc(N2CCN[C@H](C#N)C2)nn1 [Example 33, (S)-4-(6-((1-(4-(Difluoromethyl)phenyl)-4-methyl-1H-1,2,3-triazol-5-yl)methoxy)pyridazin-3-yl)piperazine-2-carbonitrile]"
2,7.45 nM,"Cc1nnn(-c2ccc(C(F)F)cc2)c1COc1ccc(N2CCN[C@H](C(=O)N(C)C)C2)nn1 [Example 31, (S)-4-(6-((1-(4-(Difluoromethyl)phenyl)-4-methyl-1H-1,2,3-triazol-5-yl)methoxy)pyridazin-3-yl)-N,N-dimethylpiperazine-2-carboxamide]"
3,0.81 nM,"Cc1nnn(-c2ccc(C(F)F)cc2)c1COc1ccc(N2CCN(c3ccn(C)n3)C(=O)C2)nn1 [Example 112, 4-(6-((1-(4-(Difluoromethyl)phenyl)-4-methyl-1H-1,2,3-triazol-5-yl)methoxy)pyridazin-3-yl)-1-(1-methyl-1H-pyrazol-3-yl)piperazin-2-one]"
4,7.25 nM,"Cc1nnn(-c2ccc(C(F)F)cc2)c1COc1ccc(N2CCCNC(=O)C2)nn1 [Example 4, 4-(6-((1-(4-(Difluoromethyl)phenyl)-4-methyl-1H-1,2,3-triazol-5-yl)methoxy)pyridazin-3-yl)-1,4-diazepan-2-one]"
5,1.66 nM,"Cc1nnn(-c2ccc(C(F)F)cc2)c1COc1ccc(N2CCN3C(=O)NC(=O)[C@@H]3C2)nn1 [Example 118, (S)-7-(6-((1-(4-(Difluoromethyl)phenyl)-4-methyl-1H-1,2,3-triazol-5-yl)methoxy)pyridazin-3-yl)tetrahydroimidazo[1,5-a]pyrazine-1,3(2H,5H)-dione]"
6,4.87 nM,"Cc1nnn(-c2ccc(C(F)F)cc2)c1COc1ccc(N2CCN3CC(=O)NC(=O)[C@@H]3C2)nn1 [Example 117, (S)-8-(6-((1-(4-(Difluoromethyl)phenyl)-4-methyl-1H-1,2,3-triazol-5-yl)methoxy)pyridazin-3-yl)hexahydro-1H-pyrazino[1,2-a]pyrazin-1,3-(2H)-dione]"
7,40.1 nM,"Cc1nnn(-c2ccc(F)cc2)c1COc1ccc(N2CCN3CCOC[C@@H]3C2)nn1 [Example 126, (S)-8-(6-((1-(4-Fluorophenyl)-4-methyl-1H-1,2,3-triazol-5-yl)methoxy)pyridazin-3-yl)octahydropyrazino[2,1-c][1,4]oxazine]"
8,2.53 nM,"O=C1NCCN2CCN(c3ccc(OCc4c(C(F)F)nnn4-c4ccc(C(F)F)cc4)nn3)C[C@@H]12 [Example 184, (S)-8-(6-((4-(Difluoromethyl)-1-(4-(difluoromethyl)phenyl)-1H-1,2,3-triazol-5-yl)methoxy)pyridazin-3-yl)hexahydro-2H-pyrazino[1,2-a]pyrazin-1(6H)-one]"
9,14.4 nM,"Cc1nnn(-c2ccc(C(F)F)cc2)c1COc1ccc(N2CCNC(C)(C)C2=O)nn1 [Example 10, 1-(6-((1-(4-(Difluoromethyl)phenyl)-4-methyl-1H-1,2,3-triazol-5-yl)methoxy)pyridazin-3-yl)-3,3-dimethylpiperazin-2-one]"
10,0.89 nM,"Cc1nnn(-c2ccc(C(F)F)cc2)c1COc1ccc(N2CCC(N(C)C)C2)nn1 (centres unmarked) [Example 12, 1-(6-((1-(4-(Difluoromethyl)phenyl)-4-methyl-1H-1,2,3-triazol-5-yl)methoxy)pyridazin-3-yl)-N,N-dimethylpyrrolidin-3-amine]"
11,2.32 nM,"Cc1nnn(-c2ccc(C(F)F)cc2)c1COc1ccc(N2CCN3CC(C(C)(C)C)NC(=O)[C@@H]3C2)nn1 (single isomer, unassigned) [Example 202]"
12,8.31 nM,"Cc1nnn(-c2ccc(C(F)F)cc2)c1COc1ccc(N2CC3(CCNC3=O)C2)nn1 [Example 86, 2-(6-((1-(4-(Difluoromethyl)phenyl)-4-methyl-1H-1,2,3-triazol-5-yl)methoxy)pyridazin-3-yl)-2,6-diazaspiro[3.4]octan-5-one]"
13,1.89 nM,"Cc1nnn(-c2ccc(C(F)F)cc2)c1COc1ccc(N2CC(C(=O)Nc3cnn(C(F)F)c3)C2)nn1 [Example 153, N-(1-(Difluoromethyl)-1H-pyrazol-4-yl)-1-(6-((1-(4-(difluoromethyl)phenyl)-4-methyl-1H-1,2,3-triazol-5-yl)methoxy)pyridazin-3-yl)azetidine-3-carboxamide]"
14,40.6 nM,"Cc1cc(-c2nnn(-c3ccc(C(F)F)cc3)c2COc2ccc(N3CCNC(=O)C3)nn2)no1 [Example 188, 4-(6-((1-(4-(Difluoromethyl)phenyl)-4-(5-methylisoxazol-3-yl)-1H-1,2,3-triazol-5-yl)methoxy)pyridazin-3-yl)piperazin-2-one]"
15,2.6 nM,"O=C1CN(c2ccc(OCc3c(C4CC4)nnn3-c3ccc(C(F)F)cc3)nn2)CCN1 [Example 83, 4-(6-((4-Cyclopropyl-1-(4-(difluoromethyl)phenyl)-1H-1,2,3-triazol-5-yl)methoxy)pyridazin-3-yl)piperazin-2-one]"

# — patent US20250136581A1, “SUBSTITUTED TRIAZOLE DERIVATIVE, PREPARATION METHOD THEREFOR, PHARMACEUTICAL COMPOSITION THEREOF, AND USE THEREOF” (SHANGHAI SIMR BIOTECHNOLOGY CO., LTD., priority 2021, published 2025)
